{"source": "patent US7569539B2", "about": "“Oral administration of calcitonin” (Novartis AG, priority 2002, dated 2009)", "key": {"[1]": {"experiment": "Effect of meal timing on plasma sCT after oral sCT/5-CNAC tablet in human subjects (Example 7)", "type": "in vivo", "conditions": "for AUC / Cmax: both sexes, human, plasma, po, 1 mg, oral tablet 1 mg sCT + 5-CNAC disodium salt, plasma sCT; for AUC: read-out: Mean AUC ± SD; for Cmax: read-out: Mean Cmax ± SD", "procedure": "The effect of administration of a tablet formulation of sCT in combination with 5-CNAC disodium salt at various time intervals relative to meals is measured in human subjects.\nThe tablet formulation employed is a formulation according to Example 5, comprising 1 mg sCT and 5-CNAC disodium salt in an amount corresponding to […] of 5-CNAC.\nThe study employs a seven-period, randomized, open-label, balanced Latin-square, crossover design. Twenty-one human healthy adult subjects (7 males, 7 pre-menopausal females and 7 post-menopausal females), between the ages of 18 and 65 years of age are involved. Pre- and post-menopausal females are matched for height (±0.5 cm) and weight (±8%).\nThe study consists of a screening period (−21 to −2 days prior to dosing), a baseline period (24-hour period prior to dosing, or day −1), and a treatment period comprised of seven daily single-dose administrations. Subjects are instructed to fast for at least 8 hours prior to undergoing screening evaluations so that blood samples can be drawn for bioanalytical testing. At baseline, subjects are admitted to the study center at least 12 hours prior to dosing and remain domiciled until study completion (one day following the final dose of study drug, or study day 8). The interdose interval between each treatment will be approximately 24 hours. Subjects are randomized according to the treatment allocation schedule to receive a single oral dose under either fasted or fed conditions. Under fed conditions, meal times vary relative to a fixed dosing time, in order to assess the effect of varying meal and dose intervals on drug pharmacokinetics.\nDuring the treatment period, subjects fast overnight for a minimum of 10 hours prior to dosing, except when the specified treatment condition requires a meal to be served pre-dose. Dosing occurs between 9 and 10 AM for seven consecutive days. Meal times vary around a fixed dosing interval over a seven-day treatment period in order to determine optimal dosing times relative to food intake. Included is the administration of study drug under fasting conditions, which will serve as the reference condition to assess drug pharmacokinetics under varying meal and dose intervals, as well as study drug administration with meals, to determine the extent of food interaction.\nThe order in which subjects are initially dosed remains consistent throughout the study, so that the first subject dosed in period 1 remains the first subject dosed across all treatment conditions. Except where fasting is the specified treatment condition, subjects receive a standardized FDA (or equivalent) high-fat breakfast at a different time each day relative to dosing. Subjects whose treatment assignment is to fast, continue fasting for at least four hours post-dose, after which they may receive a standard meal at the specified time. Sampling for pharmacokinetic assessments are performed at scheduled intervals for up to 8 hours post-dose. If pharmacokinetic sampling times coincide with the start of a meal, sampling occurs first. Subjects are discharged from the study center one day following the final dose of study drug (day 8), after the completion of all safety evaluations.\nPharmacokinetic blood sampling is performed each day at the following timepoints (unless otherwise specified, when sampling times coincide with the start of a meal, sampling is done first): pre-dose (5 mL blood on each treatment day, lithium-heparin tubes to yield plasma), and then 5, 10, 15, 30, 45, 60, 90, 120, 180 and 240 minutes post-dose (3 mL blood), lithium-heparin tube to yield plasma). For treatment conditions B, C, D and E (see table below) one additional sample (3 mL) is obtained at 5 minutes after the start of the meal. For treatment condition E, the 10 minute sample also represents the 5-minute post-meal sample. For treatment B only, one additional sample is obtained at 15 minutes after the start of the meal (i.e., at 75 minutes post-dose). […]"}, "[2]": {"experiment": "Effect of meal timing on plasma sCT after oral sCT/5-CNAC tablet in human subjects (Example 7)", "type": "in vivo", "conditions": "tablet 1 mg sCT + 5-CNAC disodium salt (equivalent to 200 mg 5-CNAC), 5 to 60 minutes prior to a meal instead of with a meal"}, "[3]": {"conditions": "Treatment group A: after overnight fast"}, "[4]": {"conditions": "Treatment group B: 1 hour pre-meal"}, "[5]": {"conditions": "Treatment group C: 30 minutes pre-meal"}, "[6]": {"conditions": "Treatment group D: 15 minutes pre-meal"}, "[7]": {"conditions": "Treatment group E: 5 minutes pre-meal"}, "[8]": {"conditions": "Treatment group G: 2.5 hours post-meal"}}, "note": "Read-outs that look alike come from different tables or passages of the source."}
{"smiles": "CC(C)C[C@H](NC(=O)[C@H](CCCCN)NC(=O)CNC(=O)[C@H](CC(C)C)NC(=O)[C@@H](NC(=O)[C@@H]1CSSC[C@H](N)C(=O)N[C@@H](CO)C(=O)N[C@@H](CC(N)=O)C(=O)N[C@@H](CC(C)C)C(=O)N[C@@H](CO)C(=O)N[C@@H]([C@@H](C)O)C(=O)N1)C(C)C)C(=O)N[C@@H](CO)C(=O)N[C@@H](CCC(N)=O)C(=O)N[C@@H](CCC(=O)O)C(=O)N[C@@H](CC(C)C)C(=O)N[C@@H](Cc1c[nH]cn1)C(=O)N[C@@H](CCCCN)C(=O)N[C@@H](CC(C)C)C(=O)N[C@@H](CCC(N)=O)C(=O)N[C@H](C(=O)N[C@@H](Cc1ccc(O)cc1)C(=O)N1CCC[C@H]1C(=O)N[C@@H](CCCNC(=N)N)C(=O)N[C@H](C(=O)N[C@@H](CC(N)=O)C(=O)N[C@H](C(=O)NCC(=O)N[C@@H](CO)C(=O)NCC(=O)N[C@H](C(=O)N1CCC[C@H]1C(N)=O)[C@@H](C)O)[C@@H](C)O)[C@@H](C)O)[C@@H](C)O", "note": "[sCT, salmon calcitonin]", "values": [{"measurement": "plasma levels of sCT", "setting": "[1]; Groups C and D: administered either 15 or 30 minutes before a meal", "value": "maximum plasma levels"}, {"measurement": "plasma levels of sCT", "setting": "[1]; administration with a meal (Group F)", "value": "negligible"}, {"measurement": "AUC", "setting": "[1]; [3]", "value": "0.0663 ± 0.0422", "unit": "ng·h/mL"}, {"measurement": "Cmax", "setting": "[1]; [3]", "value": "0.139 ± 0.0743", "unit": "ng/mL"}, {"measurement": "AUC", "setting": "[1]; [4]", "value": "0.0634 ± 0.0379", "unit": "ng·h/mL"}, {"measurement": "Cmax", "setting": "[1]; [4]", "value": "0.136 ± 0.0647", "unit": "ng/mL"}, {"measurement": "AUC", "setting": "[1]; [5]", "value": "0.079 ± 0.0793", "unit": "ng·h/mL"}, {"measurement": "Cmax", "setting": "[1]; [5]", "value": "0.162 ± 0.142", "unit": "ng/mL"}, {"measurement": "AUC", "setting": "[1]; [6]", "value": "0.0721 ± 0.0451", "unit": "ng·h/mL"}, {"measurement": "Cmax", "setting": "[1]; [6]", "value": "0.162 ± 0.0679", "unit": "ng/mL"}, {"measurement": "AUC", "setting": "[1]; [7]", "value": "0.0604 ± 0.0674", "unit": "ng·h/mL"}, {"measurement": "Cmax", "setting": "[1]; [7]", "value": "0.149 ± 0.151", "unit": "ng/mL"}, {"measurement": "AUC", "setting": "[1]; Treatment group F: with meal", "value": "0.0126 ± 0.0185", "unit": "ng·h/mL"}, {"measurement": "Cmax", "setting": "[1]; Treatment group F: with meal", "value": "0.024 ± 0.0267", "unit": "ng/mL"}, {"measurement": "AUC", "setting": "[1]; [8]", "value": "0.0611 ± 0.114", "unit": "ng·h/mL"}, {"measurement": "Cmax", "setting": "[1]; [8]", "value": "0.0798 ± 0.134", "unit": "ng/mL"}, {"measurement": "increase (Cmax and AUC) in oral absorption", "setting": "[2]", "value": "~5", "unit": "fold"}]}
